# Key:
# [1] = target: T1, AChE from Electrophorus electricus (Electrophorus electricus, UniProt O42275); experiment: biochemical; conditions: for IC50: Ellman's method, read-out: IC50 in the AChEI assay
# T1 construct: purchased Sigma (St. Louis, MO, USA)
# Procedure: AChEI activity was measured using Ellman’s method. AChE hydrolyzes the substrate ACTI into acetate and thiocholine. In a neutral and alkaline medium; thiocholine reacts with DTNB to give yellow colored 2-nitro-5-thiobenzoate, which can be detected spectrophotometrically at 405 nm. Briefly, in a 96-well plate, 25 µL of 15 mM ACTI, 125 µL of 3 mM DTNB in buffer B (50 mM Tris HCl, pH = 8, 0.1 M NaCl, 0.02 M MgCl2·6H2O), 50 µL of buffer A (50 mM Tris-HCl, PH 8, 0.1% BSA) and 25 µL of tested sample (dissolved in 25% DMSO) were mixed, and the absorbance was measured using a microplate reader (Biotek, Winooski, VT, USA) at 405 nm every 16 s ten times. Then, 25 µL of AChE (0.25 U/mL in buffer A) was added and the absorbance was measured ten times every 16 s. A solution of 25% DMSO was used as a negative control. Absorbance was plotted against time and enzyme activity was calculated from the slope of the line so obtained and expressed as a percentage compared to an assay using a buffer without any inhibitor. Fractions were tested at 400 µg/mL. To avoid any increase in absorbance due to the color of the compounds or spontaneous hydrolysis of the substrate, the absorbance before addition of the enzyme was subtracted from the absorbance after adding the enzyme.
# IC50 values of isolated compounds in AChEI and scavenging of hydroxyl radical assays were calculated using Probit Analysis (SPSS Version 16.0 for Windows, SPSS Inc., Chicago, IL, USA) for five different concentrations in three independent experiments. Cell viability was expressed as a percentage of MTT reduction, assuming that the viability of cells treated with 1% DMSO as a negative control was 100%. Figures were built in Microsoft Excel 2010. All values are the mean ± SD of three independent experiments. Data were analyzed for statistical significance using one-way ANOVA, followed by Dunnet’s test as a post-hoc test with GraphPad Prism 5.0 software for Windows (Inc., San Diego, CA, USA).
# neuro-2A cells = experiment: Protection against Aβ25-35-induced neurotoxicity (MTT); format: cell-based, Mouse; conditions: for neuroprotection against Aβ25-35 (in words): at the highest concentration (100 µM); for Protection against Aβ25-35: summary Table 4; as to Protection against Aβ25-35: key: +: Weak activity; ++: Strong activity
# Procedure: Neuro-2A cell line was maintained in Eagle’s Minimum Essential medium supplemented with 10% fetal bovine serum, 1% of 100× antibiotic—antimitotic agents (containing penicillin and streptomycin) in a humid atmosphere of 5% (v/v) CO2 and 95% (v/v) air at 37 °C. Neuro-2A cells were plated in 96-well cell culture plates at a density of 3 × 10^4 cells/well for H2O2 and intracellular ROS assays and 2.5 × 10^3 cells/well for the Aβ25-35-assay.
# Cell viability was determined by MTT reduction assay. Briefly, after treatment with isolated compounds, the media was replaced by fresh one after washing the cells with 100 µL PBS and 20 µL of MTT (5 mg/mL) was added to each well. After 4 h incubation at 37 °C, the state of cells was checked under microscope to confirm either cytotoxicity in H2O2 and Aβ25-35 wells or protection in positive controls and isolated compounds ones. The supernatants were aspirated carefully, and 150 µL of DMSO was added to each well to dissolve the dark blue formazan crystals. The absorbance was measured using a microplate reader at 570 nm.
# Similarly, the concentration of Aβ25-35 that decreased cell viability to about 50% was determined. […] So, the cells were incubated with different concentrations of the isolated compounds (6.25, 12.5, 25, 50 and 100 µM) and EGCG as a positive control for 3 h followed by Aβ25-35 treatment for 72 h.
# Aβ25-35 = target: T2, Aβ25-35 (Homo sapiens, UniProt P05067); experiment: Thioflavin T assay of Aβ25-35 aggregation; format: biochemical; conditions: for effect on Th-T fluorescence (in words): 25-100 µM; for Decrease of ThT Fluorescence: summary Table 4; as to Decrease of ThT Fluorescence: key: +: Weak activity; ++: Strong activity
# T2 construct: Aβ25-35 (25 µM) freshly prepared in PBS; purchased Sigma (St. Louis, MO, USA)
# Procedure: Thioflavin T (ThT), abenzothiazole salt, is used to quantify misfolded protein aggregates and amyloid peptides. ThT is a non-fluorescent dye which, when it binds to amyloid rich aggregates, produces a fluorescent signal proportional to the quantity of amyloid aggregation. Aβ25-35 (25 µM) freshly prepared in PBS (50 mM, pH = 7.4) was incubated at 37 °C with or without different concentrations (100, 50, 25 µM) of isolated compounds at 37 °C and shaken at 300 rpm for 3 h. One hundred µL of each incubated sample was transferred to a 96-well plate, and five µM ThT was added. The ThT fluorescence was measured over 180 min at 10-min intervals at emission λ at 485 nm; and excitation λ at 442 nm using FlexStation 3 Microplate Reader (Molecular Devices, LLC, Sunnyvale, CA, USA), and data were managed by SoftMax Pro® 5.4.1 software. The samples were constantly shaken every 60 sec during the incubation. 1% DMSO and different concentrations of ECCG were taken as negative and positive controls, respectively. The area under the curve (AUC) was taken as indicative of fluorescence intensity. Fluorescence of samples and ThT without Aβ25-35 (sample blank) was detected and subtracted from the final AUC to prevent any interference.
# T1 sequence (O42275 24-633): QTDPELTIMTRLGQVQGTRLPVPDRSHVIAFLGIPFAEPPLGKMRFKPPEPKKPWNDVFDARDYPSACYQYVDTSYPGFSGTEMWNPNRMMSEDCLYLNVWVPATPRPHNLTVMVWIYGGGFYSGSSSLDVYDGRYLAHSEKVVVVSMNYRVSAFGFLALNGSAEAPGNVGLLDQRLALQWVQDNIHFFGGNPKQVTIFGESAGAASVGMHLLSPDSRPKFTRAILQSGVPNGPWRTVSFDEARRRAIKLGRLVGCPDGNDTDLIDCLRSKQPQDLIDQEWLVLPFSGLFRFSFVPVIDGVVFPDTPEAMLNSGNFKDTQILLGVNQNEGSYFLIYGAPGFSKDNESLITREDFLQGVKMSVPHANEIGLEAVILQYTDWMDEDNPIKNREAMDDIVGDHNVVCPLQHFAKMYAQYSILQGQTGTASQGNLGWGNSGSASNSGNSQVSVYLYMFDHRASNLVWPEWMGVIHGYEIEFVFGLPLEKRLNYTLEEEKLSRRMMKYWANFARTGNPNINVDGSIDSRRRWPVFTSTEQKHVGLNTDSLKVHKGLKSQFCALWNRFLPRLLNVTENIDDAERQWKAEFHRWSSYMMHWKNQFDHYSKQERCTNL
Compound,IC50 [1] [µM],neuroprotection against Aβ25-35 (in words) (neuro-2A cells),Protection against Aβ25-35 (neuro-2A cells),effect on Th-T fluorescence (in words) (Aβ25-35),Decrease of ThT Fluorescence (Aβ25-35),inhibition at 250 µM ([1]; at 250 µM) [%]
"O=c1c(OC2OC(CO)C(O)C(O)C2O)c(-c2ccc(O)cc2)oc2cc(O)cc(O)c12 (centres unmarked) [Kaempferol-3-O-glucoside (13), kaempferol-3-O-glucoside]",80.4 ± 5.1,significant neuroprotection (p < 0.05),+,weak activity,+,–
"O=c1c(O)c(-c2ccc(O)cc2)oc2cc(O)cc(O)c12 [Kaempferol (8), kaempferol]",–,significant neuroprotection (p < 0.05),+,weak activity,+,30
"CC(=O)OC1c2c(ccc3ccc(=O)oc23)OC(C)(C)C1OC(=O)C(C)(O)C(C)O (centres unmarked) [Hyuganin E (6), hyuganin E]",286.5 ± 2.1,–,++,decreased Th-T fluorescence in a dose-dependent manner,++,–

# From PMC6272295, “In Vitro Neuroprotective Activities of Compounds from Angelica shikokiana Makino” (Molecules, 2015)
